Measurements taken from the supplement of paper PMC10307832.

Assays:
Assay in all cases: relative viability (nuclei count vs DMSO), 5 days (fraction); higher = more cells survive
HCC-78 = test system: HCC-78
Outline: (§1)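 Relative viability equals treated-well nuclei counts divided by vehicle-well nuclei counts. Counts came from 4× images of lung cancer cell lines grown in 1536-well plates for 5 days after pin-tool dosing on the day after seeding. Dosing used one drug alone or a fixed anchor-drug dose plus five library-drug doses (not always all listed) in √10 steps, and values are medians of duplicate plates.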

NCI-H1666 = test system: NCI-H1666
Outline: as §1

NCI-H1915 = test system: NCI-H1915
Outline: as §1

NCI-H2085 = test system: NCI-H2085
Outline: as §1

HOP-62 = test system: HOP-62
Outline: as §1

ABC-1 = test system: ABC-1
Outline: as §1

UMC-11 = test system: UMC-11
Outline: as §1

COR-L 105 = test system: COR-L 105
Outline: as §1

EPLC-272H = test system: EPLC-272H
Outline: as §1

NCI-H322M = test system: NCI-H322M
Outline: as §1

NCI-H358 = test system: NCI-H358
Outline: as §1

In the case of `CC(=O)O[C@@]12CO[C@@H]1C[C@H](O)[C@@]1(C)C(=O)[C@H](O)C3=C(C)[C@@H](OC(=O)[C@H](O)[C@@H](NC(=O)OC(C)(C)C)c4ccccc4)C[C@@](O)([C@@H](OC(=O)c4ccccc4)[C@H]21)C3(C)C` [Docetaxel] + Cc1nc(NC(=O)N2CCC[C@H]2C(N)=O)sc1-c1ccnc(C(C)(C)C(F)(F)F)c1 [Alpelisib] (partner 2 µM), the relative viability (HCC-78; first compound 0.0002 µM) is reported as 0.338, the relative viability (HCC-78; first compound 0.000632 µM) is reported as 0.279 and the relative viability (HCC-78; first compound 0.002 µM) is reported as 0.255. For the same molecule, the relative viability (HCC-78; first compound 0.006325 µM) was 0.24, the relative viability (HCC-78; first compound 0.02 µM) was 0.175 and the relative viability (NCI-H1666; first compound 0.0002 µM) was 0.803. It also gave a relative viability (NCI-H1666; first compound 0.000632 µM) of 0.406, a relative viability (NCI-H1666; first compound 0.002 µM) of 0.352 and a relative viability (NCI-H1666; first compound 0.006325 µM) of 0.276. For the same molecule, the relative viability (NCI-H1666; first compound 0.02 µM) was 0.168, the relative viability (NCI-H1915; first compound 0.0002 µM) was 1.02 and the relative viability (NCI-H1915; first compound 0.000632 µM) was 0.971. It also gave a relative viability (NCI-H1915; first compound 0.002 µM) of 0.52, a relative viability (NCI-H1915; first compound 0.006325 µM) of 0.183 and a relative viability (NCI-H1915; first compound 0.02 µM) of 0.135. The relative viability (NCI-H2085; first compound 0.0002 µM) was 0.93, the relative viability (NCI-H2085; first compound 0.000632 µM) was 0.905 and the relative viability (NCI-H2085; first compound 0.002 µM) was 0.697. It also gave a relative viability (NCI-H2085; first compound 0.006325 µM) of 0.609, a relative viability (NCI-H2085; first compound 0.02 µM) of 0.378 and a relative viability (HOP-62; first compound 0.0002 µM) of 0.899. The relative viability (HOP-62; first compound 0.000632 µM) was 0.526, the relative viability (ABC-1; first compound 0.0002 µM) was 0.826 and the relative viability (ABC-1; first compound 0.000632 µM) was 1.07. For the same molecule, the relative viability (ABC-1; first compound 0.002 µM) was 0.493, the relative viability (ABC-1; first compound 0.006325 µM) was 0.464 and the relative viability (ABC-1; first compound 0.02 µM) was 0.337. For the same molecule, the relative viability (UMC-11; first compound 0.0002 µM) was 0.963, the relative viability (UMC-11; first compound 0.000632 µM) was 0.841 and the relative viability (UMC-11; first compound 0.002 µM) was 0.195. The relative viability (UMC-11; first compound 0.006325 µM) was 0.176, the relative viability (UMC-11; first compound 0.02 µM) was 0.153 and the relative viability (COR-L 105; first compound 0.0002 µM) was 0.828. The relative viability (COR-L 105; first compound 0.000632 µM) was 0.952, the relative viability (COR-L 105; first compound 0.002 µM) was 0.475 and the relative viability (COR-L 105; first compound 0.006325 µM) was 0.522. The relative viability (COR-L 105; first compound 0.02 µM) was 0.306, the relative viability (EPLC-272H; first compound 0.0002 µM) was 0.928 and the relative viability (EPLC-272H; first compound 0.000632 µM) was 0.741. It also gave a relative viability (EPLC-272H; first compound 0.002 µM) of 0.43, a relative viability (EPLC-272H; first compound 0.006325 µM) of 0.147 and a relative viability (EPLC-272H; first compound 0.02 µM) of 0.106. The relative viability (NCI-H322M; first compound 0.0002 µM) was 0.908, the relative viability (NCI-H322M; first compound 0.000632 µM) was 0.869 and the relative viability (NCI-H322M; first compound 0.002 µM) was 0.618. It also gave a relative viability (NCI-H322M; first compound 0.006325 µM) of 0.533, a relative viability (NCI-H322M; first compound 0.02 µM) of 0.181 and a relative viability (NCI-H358; first compound 0.0002 µM) of 0.786. The relative viability (NCI-H358; first compound 0.000632 µM) was 0.361.
